Test results reported in patent US11319299B2, “Substituted carboxamides as inhibitors of WDR5 protein-protein binding” (PROPELLON THERAPEUTICS INC., priority 2016, dated 2022).

target: WDR5 (Homo sapiens (Human), UniProt P61964); experiment: Surface Plasmon Resonance (SPR) assay, KD and residence time; format: binding; conditions: surface plasmon resonance (SPR); read-out: WDR5 binding affinity (KD)

| SMILES | Kd |
| --- | --- |
| C[C@@H]1CN(c2cc(F)c(-c3ccc4c(c3)ncn4C)cc2NC(=O)c2cn(C)c(=O)cc2C(F)F)C[C@H](C)N1C [Example 680, 4-(difluoromethyl)-N-[4-fluoro-5-(1-methylbenzimidazol-5-yl)-2-[(3R,5S)-3,4,5-trimethylpiperazin-1-yl]phenyl]-1-methyl-6-oxopyridine-3-carboxamide] | 58.2 nM |
| C[C@@H]1CN(c2cc(F)c(-c3ccc4ncn(C)c4c3)cc2NC(=O)c2cn(C)c(=O)cc2C(F)F)C[C@H](C)N1C [Example 681, 4-(difluoromethyl)-N-[4-fluoro-5-(3-methylbenzimidazol-5-yl)-2-[(3R,5S)-3,4,5-trimethylpiperazin-1-yl]phenyl]-1-methyl-6-oxopyridine-3-carboxamide] | 39.3 nM |
| C[C@@H]1CN(c2cc(F)c(-c3cccc4scnc34)cc2NC(=O)c2cn(C)c(=O)cc2C(F)F)C[C@H](C)N1C [Example 682, N-[5-(1,3-benzothiazol-4-yl)-4-fluoro-2-[(3R,5S)-3,4,5-trimethylpiperazin-1-yl]phenyl]-4-(difluoromethyl)-1-methyl-6-oxopyridine-3-carboxamide] | 20.4 nM |
| C[C@@H]1CN(c2cc(F)c(-c3ccc4scnc4c3)cc2NC(=O)c2cn(C)c(=O)cc2C(F)F)C[C@H](C)N1C [Example 683, N-[5-(1,3-benzothiazol-5-yl)-4-fluoro-2-[(3R,5S)-3,4,5-trimethylpiperazin-1-yl]phenyl]-4-(difluoromethyl)-1-methyl-6-oxopyridine-3-carboxamide] | 12.3 nM |
| C[C@@H]1CN(c2cc(F)c(-c3ccc4ncsc4c3)cc2NC(=O)c2cn(C)c(=O)cc2C(F)F)C[C@H](C)N1C [Example 684, N-[5-(1,3-benzothiazol-6-yl)-4-fluoro-2-[(3R,5S)-3,4,5-trimethylpiperazin-1-yl]phenyl]-4-(difluoromethyl)-1-methyl-6-oxopyridine-3-carboxamide] | 7.82 nM |
| C[C@@H]1CN(c2cc(F)c(C3=CCN(c4ncc(C#N)s4)CC3)cc2NC(=O)c2c[nH]c(=O)cc2C(F)F)C[C@H](C)N1C [Example 685, N-[5-[1-(5-cyano-1,3-thiazol-2-yl)-3,6-dihydro-2H-pyridin-4-yl]-4-fluoro-2-[(3R,5S)-3,4,5-trimethylpiperazin-1-yl]phenyl]-4-(difluoromethyl)-6-oxo-1H-pyridine-3-carboxamide] | 2.23 nM |
| C[C@@H]1CN(c2cc(F)c(C3=CCCN(c4ncc(C#N)s4)C3)cc2NC(=O)c2c[nH]c(=O)cc2C(F)F)C[C@H](C)N1C [Example 687, N-[5-[1-(5-cyano-1,3-thiazol-2-yl)-3,6-dihydro-2H-pyridin-5-yl]-4-fluoro-2-[(3R,5S)-3,4,5-trimethylpiperazin-1-yl]phenyl]-4-(difluoromethyl)-6-oxo-1H-pyridine-3-carboxamide] | 1.84 nM |
| C[C@@H]1CN(c2cc(F)c(-c3ccnc(N4CCOCC4)n3)cc2NC(=O)c2c[nH]c(=O)cc2C(F)F)C[C@H](C)N1C [Example 692, 4-(difluoromethyl)-N-[4-fluoro-5-(2-morpholin-4-ylpyrimidin-4-yl)-2-[(3R,5S)-3,4,5-trimethylpiperazin-1-yl]phenyl]-6-oxo-1H-pyridine-3-carboxamide] | 2.4 nM |
| C[C@@H]1CN(c2cc(F)c(-c3ccnc(N4CCOCC4)n3)cc2NC(=O)c2cn(C)c(=O)cc2C(F)(F)F)C[C@H](C)N1C [Example 693, N-[4-fluoro-5-(2-morpholin-4-ylpyrimidin-4-yl)-2-[(3R,5S)-3,4,5-trimethylpiperazin-1-yl]phenyl]-1-methyl-6-oxo-4-(trifluoromethyl)pyridine-3-carboxamide] | 4.79 nM |
| C[C@@H]1CN(c2cc(F)c(-c3ccnc(OC4CCOCC4)n3)cc2NC(=O)c2c[nH]c(=O)cc2C(F)(F)F)C[C@H](C)N1C [Example 695, N-[4-fluoro-5-[2-(oxan-4-yloxy)pyrimidin-4-yl]-2-[(3R,5S)-3,4,5-trimethylpiperazin-1-yl]phenyl]-6-oxo-4-(trifluoromethyl)-1H-pyridine-3-carboxamide] | 2.53 nM |
| C[C@@H]1CN(c2cc(F)c(C3=CCN(c4ncc(C#N)s4)CC3)cc2NC(=O)c2c[nH]c(=O)cc2C(F)(F)F)C[C@H](C)N1C [Example 696, N-[5-[1-(5-cyano-1,3-thiazol-2-yl)-3,6-dihydro-2H-pyridin-4-yl]-4-fluoro-2-[(3R,5S)-3,4,5-trimethylpiperazin-1-yl]phenyl]-6-oxo-4-(trifluoromethyl)-1H-pyridine-3-carboxamide] | 1.31 nM |
| C[C@@H]1CN(c2cc(F)c(C3=CCCN(C(=O)OC4(C)CCC4)CC3)cc2NC(=O)c2c[nH]c(=O)cc2C(F)(F)F)C[C@H](C)N1C [Example 699, (1-methylcyclobutyl) 4-[2-fluoro-5-[[6-oxo-4-(trifluoromethyl)-1H-pyridine-3-carbonyl]amino]-4-[(3R,5S)-3,4,5-trimethylpiperazin-1-yl]phenyl]-2,3,6,7-tetrahydroazepine-1-carboxylate] | 3.7 nM |
| C[C@@H]1CN(c2cc(F)c(C3=CCCN(c4ncc(C#N)s4)CC3)cc2NC(=O)c2c[nH]c(=O)cc2C(F)(F)F)C[C@H](C)N1C [Example 700, N-[5-[1-(5-cyano-1,3-thiazol-2-yl)-2,3,6,7-tetrahydroazepin-4-yl]-4-fluoro-2-[(3R,5S)-3,4,5-trimethylpiperazin-1-yl]phenyl]-6-oxo-4-(trifluoromethyl)-1H-pyridine-3-carboxamide] | 7.31 nM |
| C[C@@H]1CN(c2cc(F)c(C3=CCCN(c4ccnc(C#N)n4)C3)cc2NC(=O)c2c[nH]c(=O)cc2C(F)(F)F)C[C@H](C)N1C [Example 701, N-[5-[1-(2-cyanopyrimidin-4-yl)-3,6-dihydro-2H-pyridin-5-yl]-4-fluoro-2-[(3R,5S)-3,4,5-trimethylpiperazin-1-yl]phenyl]-6-oxo-4-(trifluoromethyl)-1H-pyridine-3-carboxamide] | 1.73 nM |
| C[C@@H]1CN(c2cc(F)c(C3=CCN(C(=O)OC4CC(F)(F)C4)CC3)cc2NC(=O)c2c[nH]c(=O)cc2C(F)F)C[C@H](C)N1C [Example 702, (3,3-difluorocyclobutyl) 4-[5-[[4-(difluoromethyl)-6-oxo-1H-pyridine-3-carbonyl]amino]-2-fluoro-4-[(3R,5S)-3,4,5-trimethylpiperazin-1-yl]phenyl]-3,6-dihydro-2H-pyridine-1-carboxylate] | 3.47 nM |
| C[C@@H]1CN(c2cc(F)c(C3=CCCN(C(=O)OC4CC(F)(F)C4)C3)cc2NC(=O)c2c[nH]c(=O)cc2C(F)F)C[C@H](C)N1C [Example 704, (3,3-difluorocyclobutyl) 5-[5-[[4-(difluoromethyl)-6-oxo-1H-pyridine-3-carbonyl]amino]-2-fluoro-4-[(3R,5S)-3,4,5-trimethylpiperazin-1-yl]phenyl]-3,6-dihydro-2H-pyridine-1-carboxylate] | 2.72 nM |
| C[C@@H]1CN(c2cc(F)c(C3=CCN(c4ccnc(C#N)n4)CC3)cc2NC(=O)c2c[nH]c(=O)cc2C(F)(F)F)C[C@H](C)N1C [Example 709, N-[5-[1-(2-cyanopyrimidin-4-yl)-3,6-dihydro-2H-pyridin-4-yl]-4-fluoro-2-[(3R,5S)-3,4,5-trimethylpiperazin-1-yl]phenyl]-6-oxo-4-(trifluoromethyl)-1H-pyridine-3-carboxamide] | 0.72 nM |
| C[C@@H]1CN(c2cc(F)c(-c3cc(F)c(C(=O)NC4CCCCC4)c(F)c3)cc2NC(=O)c2c[nH]c(=O)cc2C(F)(F)F)C[C@H](C)N1C [Example 710, N-[5-[4-(cyclohexylcarbamoyl)-3,5-difluorophenyl]-4-fluoro-2-[(3R,5S)-3,4,5-trimethylpiperazin-1-yl]phenyl]-6-oxo-4-(trifluoromethyl)-1H-pyridine-3-carboxamide] | 2.03 nM |
| C[C@@H]1CN(c2cc(F)c(-c3cc(F)c(C(=O)NC4CCCCC4(C)C)c(F)c3)cc2NC(=O)c2c[nH]c(=O)cc2C(F)(F)F)C[C@H](C)N1C (stereo partly drawn) [Example 711, N-[5-[4-[(2,2-dimethylcyclohexyl)carbamoyl]-3,5-difluorophenyl]-4-fluoro-2-[(3R,5S)-3,4,5-trimethylpiperazin-1-yl]phenyl]-6-oxo-4-(trifluoromethyl)-1H-pyridine-3-carboxamide] | 3.17 nM |
| C[C@@H]1CN(c2cc(F)c(-c3cc(F)c(C(=O)NCC4CC4)c(F)c3)cc2NC(=O)c2c[nH]c(=O)cc2C(F)(F)F)C[C@H](C)N1C [Example 712, N-[5-[4-(cyclopropylmethylcarbamoyl)-3,5-difluorophenyl]-4-fluoro-2-[(3R,5S)-3,4,5-trimethylpiperazin-1-yl]phenyl]-6-oxo-4-(trifluoromethyl)-1H-pyridine-3-carboxamide] | 2.23 nM |
| C[C@@H]1CN(c2cc(F)c(-c3csc(CN4CCOCC4)n3)cc2NC(=O)c2c[nH]c(=O)cc2C(F)(F)F)C[C@H](C)N1C [Example 713, N-[4-fluoro-5-[2-(morpholin-4-ylmethyl)-1,3-thiazol-4-yl]-2-[(3R,5S)-3,4,5-trimethylpiperazin-1-yl]phenyl]-6-oxo-4-(trifluoromethyl)-1H-pyridine-3-carboxamide] | 2.59 nM |
| C[C@@H]1CN(c2cc(F)c(-c3cnn(CCN4CCOCC4)c3)cc2NC(=O)c2c[nH]c(=O)cc2C(F)(F)F)C[C@H](C)N1C [Example 716, N-[4-fluoro-5-[1-(2-morpholin-4-ylethyl)pyrazol-4-yl]-2-[(3R,5S)-3,4,5-trimethylpiperazin-1-yl]phenyl]-6-oxo-4-(trifluoromethyl)-1H-pyridine-3-carboxamide] | 2.42 nM |
| C[C@@H]1CN(c2cc(F)c(-c3cnn(CCN4CCOCC4)c3)cc2NC(=O)c2cn(C)c(=O)cc2C(F)F)C[C@H](C)N1C [Example 717, 4-(difluoromethyl)-N-[4-fluoro-5-[1-(2-morpholin-4-ylethyl)pyrazol-4-yl]-2-[(3R,5S)-3,4,5-trimethylpiperazin-1-yl]phenyl]-1-methyl-6-oxopyridine-3-carboxamide] | 21.6 nM |
| C[C@@H]1CN(c2cc(F)c(-c3cnc(N4CCOCC4)nc3)cc2NC(=O)c2ccc(F)cc2C(F)F)C[C@H](C)N1C [Example 722, 2-(difluoromethyl)-4-fluoro-N-[4-fluoro-5-(2-morpholin-4-ylpyrimidin-5-yl)-2-[(3R,5S)-3,4,5-trimethylpiperazin-1-yl]phenyl]benzamide] | 1.36 nM |
